Activity calls are given as the source filed them. The rule behind the calls is not given here.
Tested on: Vesicular stomatitis virus
Test: Antiviral activity against Vesicular stomatitis virus Indiana infected in A549 cells assessed as inhibition of viral adsorption at early stage of replication treated for 1 hr during viral infection followed by replacement with fresh medium and measured after 48 hrs by MTT assay
Assay type: functional, organism-based

Row | SMILES | Activity
1 | C=C(C)[C@@H]1CC[C@]2(COC(=O)CCCC(=O)O)CC[C@]3(C)[C@H](CC[C@@H]4[C@@]5(C)CC[C@H](O)C(C)(C)[C@@H]5CC[C@]43C)[C@@H]12 | inactive
2 | C=C(C)[C@@H]1CC[C@]2(COC(=O)CCCC(=O)N3CCSCC3)CC[C@]3(C)[C@H](CC[C@@H]4[C@@]5(C)CC[C@H](O)C(C)(C)[C@@H]5CC[C@]43C)[C@@H]12 | inactive
3 | C=C(C)[C@@H]1CC[C@]2(COC(=O)/C=C(\C)C(=O)O)CC[C@]3(C)[C@H](CC[C@@H]4[C@@]5(C)CC[C@H](O)C(C)(C)[C@@H]5CC[C@]43C)[C@@H]12 | inactive
4 | C=C(C)[C@@H]1CC[C@]2(COC(=O)CCC(=O)O)CC[C@]3(C)[C@H](CC[C@@H]4[C@@]5(C)CCC(O)C(C)(C)[C@@H]5CC[C@]43C)[C@@H]12 (single isomer, unassigned) | inactive
5 | C#CCNC(=O)CCC(=O)OC[C@]12CC[C@@H](C(=C)C)C1[C@H]1CC[C@@H]3[C@@]4(C)CC[C@H](O)C(C)(C)[C@@H]4CC[C@@]3(C)[C@]1(C)CC2 (single isomer, unassigned) | inactive
6 | Nc1nc2c(ncn2COCCO)c(=O)[nH]1 [ACYCLOVIR] | inactive
7 | C=C(C)[C@@H]1CC[C@]2(COC(=O)c3ccccc3C(=O)O)CC[C@]3(C)[C@H](CC[C@@H]4[C@@]5(C)CC[C@H](O)C(C)(C)[C@@H]5CC[C@]43C)[C@@H]12 | inactive
8 | C#CC1(NC(=O)CCCCCCCCCC(=O)OC[C@]23CC[C@@H](C(=C)C)[C@@H]2[C@H]2CCC4[C@@]5(C)CC[C@H](O)C(C)(C)[C@@H]5CC[C@@]4(C)[C@]2(C)CC3)CCCCC1 (single isomer, unassigned) | inactive
9 | C#CCNC(=O)c1cccc(C(=O)OC[C@]23CC[C@@H](C(=C)C)[C@@H]2[C@H]2CC[C@@H]4C5(C)CC[C@H](O)C(C)(C)[C@@H]5CC[C@@]4(C)[C@]2(C)CC3)c1 (single isomer, unassigned) | inactive
10 | C=C(C)[C@@H]1CC[C@]2(COC(=O)CCCC(=O)N3CCCCC3)CC[C@]3(C)[C@H](CC[C@@H]4[C@@]5(C)CC[C@H](O)C(C)(C)[C@@H]5CC[C@]43C)[C@@H]12 | inactive
11 | C#CC1(NC(=O)/C(C)=C/C(=O)OC[C@]23CC[C@@H](C(=C)C)[C@@H]2[C@H]2CC[C@@H]4[C@@]5(C)CC[C@H](O)C(C)(C)[C@@H]5CC[C@@]4(C)[C@]2(C)CC3)CCCCC1 | inactive
12 | C=C(C)[C@@H]1CC[C@]2(COC(=O)c3cccc(C(=O)N4CCSCC4)c3)CC[C@]3(C)[C@H](CC[C@@H]4[C@@]5(C)CC[C@H](O)C(C)(C)[C@@H]5CC[C@]43C)C12 (single isomer, unassigned) | inactive
13 | C=C(C)[C@@H]1CC[C@]2(COC(=O)CCCCCCCCCC(=O)N3CCOCC3)CC[C@]3(C)[C@H](CC[C@@H]4[C@@]5(C)CC[C@H](O)C(C)(C)[C@@H]5CC[C@]43C)[C@@H]12 | inactive
14 | C=C(C)[C@@H]1CC[C@]2(COC(=O)c3ccccc3C(=O)N3CCOCC3)CC[C@]3(C)[C@H](CC[C@@H]4[C@@]5(C)CC[C@H](O)C(C)(C)[C@@H]5CC[C@]43C)[C@@H]12 | inactive
15 | C=C(C)[C@@H]1CCC2(COC(=O)CCCCCCCCCC(=O)N3CCSCC3)CC[C@]3(C)[C@H](CC[C@@H]4[C@@]5(C)CC[C@H](O)C(C)(C)[C@@H]5CC[C@]43C)[C@@H]12 (single isomer, unassigned) | inactive
16 | C#CC1(NC(=O)c2ccccc2C(=O)OC[C@]23CC[C@@H](C(=C)C)[C@@H]2[C@H]2CC[C@@H]4[C@@]5(C)CC[C@H](O)C(C)(C)[C@@H]5CC[C@@]4(C)[C@]2(C)CC3)CCCCC1 | inactive
17 | C#CCNC(=O)CCCCCCCCCC(=O)OC[C@]12CC[C@@H](C(=C)C)[C@@H]1[C@H]1CC[C@@H]3[C@@]4(C)CC[C@H](O)C(C)(C)[C@@H]4CC[C@@]3(C)[C@]1(C)CC2 | inactive
18 | C=C(C)[C@@H]1CC[C@]2(COC(=O)CCCCCCCCCC(=O)O)CC[C@]3(C)[C@H](CC[C@@H]4[C@@]5(C)CC[C@H](O)C(C)(C)[C@@H]5CC[C@]43C)[C@@H]12 | inactive
19 | C=C(C)[C@@H]1CC[C@]2(COC(=O)c3cccc(C(=O)O)c3)CC[C@]3(C)[C@H](CC[C@@H]4[C@@]5(C)CC[C@H](O)C(C)(C)[C@@H]5CC[C@]43C)[C@@H]12 | inactive
20 | C#CC1(NC(=O)c2cccc(C(=O)OC[C@]34CC[C@@H](C(=C)C)[C@@H]3[C@H]3CC[C@@H]5[C@@]6(C)CC[C@H](O)C(C)(C)[C@@H]6CC[C@@]5(C)[C@]3(C)CC4)c2)CCCCC1 | inactive
21 | C=C(C)[C@@H]1CC[C@]2(COC(=O)CCCCCCCCCC(=O)N3CCCCC3)CC[C@]3(C)[C@H](CC[C@@H]4[C@@]5(C)CC[C@H](O)C(C)(C)[C@@H]5CC[C@]43C)[C@@H]12 | inactive

Row | SMILES | Activity
22 | C=C(C)[C@@H]1CC[C@]2(COC(=O)c3ccccc3C(=O)N3CCSCC3)CC[C@]3(C)[C@H](CC[C@@H]4[C@@]5(C)CC[C@H](O)C(C)(C)[C@@H]5CC[C@]43C)[C@@H]12 | inactive
23 | Nc1ccn(C[C@@H](CO)OCP(=O)(O)O)c(=O)n1.O.O [CIDOFOVIR] | inactive
24 | C=C(C)[C@@H]1CC[C@]2(COC(=O)/C=C/C(=O)O)CC[C@]3(C)[C@H](CC[C@@H]4[C@@]5(C)CC[C@H](O)C(C)(C)[C@@H]5CC[C@]43C)[C@@H]12 | inactive
25 | C=C(C)[C@@H]1CC[C@]2(COC(=O)CCC(=O)N3CCSCC3)CC[C@]3(C)[C@H](CC[C@@H]4[C@@]5(C)CC[C@H](O)C(C)(C)[C@@H]5CC[C@]43C)[C@@H]12 | inactive
26 | C=C(C)[C@@H]1CC[C@]2(CO)CC[C@]3(C)[C@H](CC[C@@H]4[C@@]5(C)CC[C@H](O)C(C)(C)[C@@H]5CC[C@]43C)[C@@H]12 [BETULIN] | inactive
27 | C=C(C)[C@@H]1CC[C@]2(COC(=O)CCCC(=O)N3CCOCC3)CC[C@]3(C)[C@H](CC[C@@H]4[C@@]5(C)CC[C@H](O)C(C)(C)[C@@H]5CC[C@]43C)[C@@H]12 | inactive
28 | C=C(C)[C@@H]1CC[C@]2(COC(=O)CSCC(=O)O)CC[C@]3(C)[C@H](CC[C@@H]4[C@@]5(C)CC[C@H](O)C(C)(C)[C@@H]5CC[C@]43C)[C@@H]12 | inactive
29 | C=C(C)[C@@H]1CC[C@]2(COC(=O)c3ccccc3C(=O)N3CCCCC3)CC[C@]3(C)[C@H](CC[C@H]4C3(C)CC[C@H]3C(C)(C)[C@@H](O)CC[C@@]34C)[C@@H]12 (single isomer, unassigned) | inactive
30 | C#CC1(NC(=O)CCCC(=O)OC[C@]23CCC(C(=C)C)[C@@H]2[C@H]2CC[C@@H]4[C@@]5(C)CC[C@H](O)C(C)(C)[C@@H]5CC[C@@]4(C)[C@]2(C)CC3)CCCCC1 (single isomer, unassigned) | inactive
31 | C#CCNC(=O)c1ccccc1C(=O)OC[C@]12CC[C@@H](C(=C)C)[C@@H]1[C@H]1CC[C@@H]3[C@@]4(C)CC[C@H](O)C(C)(C)[C@@H]4CC[C@@]3(C)[C@]1(C)CC2 | inactive
32 | C#CCNC(=O)/C(C)=C/C(=O)OC[C@]12CC[C@@H](C(=C)C)[C@@H]1[C@H]1CC[C@@H]3[C@@]4(C)CC[C@H](O)C(C)(C)[C@@H]4CC[C@@]3(C)[C@]1(C)CC2 | inactive
33 | C=C(C)[C@@H]1CC[C@]2(COC(=O)c3cccc(C(=O)N4CCCCC4)c3)CC[C@]3(C)[C@H](CC[C@@H]4[C@@]5(C)CC[C@H](O)C(C)(C)[C@@H]5CC[C@]43C)[C@@H]12 | inactive
34 | C=C(C)[C@@H]1CC[C@]2(COC(=O)CCC(=O)N3CCCCC3)CC[C@]3(C)[C@H](CC[C@@H]4[C@@]5(C)CCC(O)C(C)(C)[C@@H]5CC[C@]43C)[C@@H]12 (single isomer, unassigned) | inactive
35 | C#CC1(NC(=O)CCC(=O)OC[C@]23CC[C@@H](C(=C)C)[C@@H]2[C@H]2CC[C@@H]4[C@@]5(C)CC[C@H](O)C(C)(C)[C@@H]5CC[C@@]4(C)[C@]2(C)CC3)CCCCC1 | inactive
36 | NC(=O)c1ncn([C@@H]2O[C@H](CO)[C@@H](O)[C@H]2O)n1 [RIBAVIRIN] | inactive
37 | C=C(C)[C@@H]1CC[C@]2(COC(=O)c3cccc(C(=O)N4CCOCC4)c3)CC[C@]3(C)[C@H](CC[C@@H]4[C@@]5(C)CC[C@H](O)C(C)(C)[C@@H]5CC[C@]43C)[C@@H]12 | inactive
38 | C#CCNC(=O)CCCC(=O)OC[C@]12CC[C@@H](C(=C)C)[C@@H]1[C@H]1CC[C@@H]3[C@@]4(C)CC[C@H](O)C(C)(C)[C@@H]4CC[C@@]3(C)[C@]1(C)CC2 | inactive
39 | C=C(C)[C@@H]1CC[C@]2(COC(=O)CCC(=O)N3CCOCC3)CC[C@]3(C)[C@H](CC[C@@H]4[C@@]5(C)CC[C@H](O)C(C)(C)[C@@H]5CC[C@]43C)[C@@H]12 | inactive
40 | C=C(C)[C@@H]1CC[C@]2(COC(=O)/C=C(\C)C(=O)N3CCOCC3)CC[C@]3(C)[C@H](CC[C@@H]4[C@@]5(C)CC[C@H](O)C(C)(C)[C@@H]5CC[C@]43C)[C@@H]12 | inactive
41 | C=C(C)[C@@H]1CC[C@]2(COC(=O)/C=C(\C)C(=O)N3CCSCC3)CC[C@]3(C)[C@H](CC[C@@H]4[C@@]5(C)CC[C@H](O)C(C)(C)[C@@H]5CC[C@]43C)[C@@H]12 | inactive
42 | C=C(C)[C@@H]1CC[C@]2(COC(=O)/C=C(\C)C(=O)N3CCCCC3)CC[C@]3(C)[C@H](CC[C@@H]4[C@@]5(C)CC[C@H](O)C(C)(C)[C@@H]5CC[C@]43C)[C@@H]12 | inactive

Source: ChEMBL document CHEMBL4831514, “Novel betulin dicarboxylic acid ester derivatives as potent antiviral agents: Design, synthesis, biological evaluation, structure-activity relationship and in-silico study” (Eur J Med Chem, 2021)
